Measured values published in ChEMBL document CHEMBL2074204, “The endothelin antagonist bosentan inhibits the canalicular bile salt export pump: a potential mechanism for hepatic adverse reactions” (Clin Pharmacol Ther, 2001).
pKi: −log10 of the molar value.

Target: T1, Bile salt export pump (Rattus norvegicus, UniProt O70127)
T1 sequence (O70127 whole entry): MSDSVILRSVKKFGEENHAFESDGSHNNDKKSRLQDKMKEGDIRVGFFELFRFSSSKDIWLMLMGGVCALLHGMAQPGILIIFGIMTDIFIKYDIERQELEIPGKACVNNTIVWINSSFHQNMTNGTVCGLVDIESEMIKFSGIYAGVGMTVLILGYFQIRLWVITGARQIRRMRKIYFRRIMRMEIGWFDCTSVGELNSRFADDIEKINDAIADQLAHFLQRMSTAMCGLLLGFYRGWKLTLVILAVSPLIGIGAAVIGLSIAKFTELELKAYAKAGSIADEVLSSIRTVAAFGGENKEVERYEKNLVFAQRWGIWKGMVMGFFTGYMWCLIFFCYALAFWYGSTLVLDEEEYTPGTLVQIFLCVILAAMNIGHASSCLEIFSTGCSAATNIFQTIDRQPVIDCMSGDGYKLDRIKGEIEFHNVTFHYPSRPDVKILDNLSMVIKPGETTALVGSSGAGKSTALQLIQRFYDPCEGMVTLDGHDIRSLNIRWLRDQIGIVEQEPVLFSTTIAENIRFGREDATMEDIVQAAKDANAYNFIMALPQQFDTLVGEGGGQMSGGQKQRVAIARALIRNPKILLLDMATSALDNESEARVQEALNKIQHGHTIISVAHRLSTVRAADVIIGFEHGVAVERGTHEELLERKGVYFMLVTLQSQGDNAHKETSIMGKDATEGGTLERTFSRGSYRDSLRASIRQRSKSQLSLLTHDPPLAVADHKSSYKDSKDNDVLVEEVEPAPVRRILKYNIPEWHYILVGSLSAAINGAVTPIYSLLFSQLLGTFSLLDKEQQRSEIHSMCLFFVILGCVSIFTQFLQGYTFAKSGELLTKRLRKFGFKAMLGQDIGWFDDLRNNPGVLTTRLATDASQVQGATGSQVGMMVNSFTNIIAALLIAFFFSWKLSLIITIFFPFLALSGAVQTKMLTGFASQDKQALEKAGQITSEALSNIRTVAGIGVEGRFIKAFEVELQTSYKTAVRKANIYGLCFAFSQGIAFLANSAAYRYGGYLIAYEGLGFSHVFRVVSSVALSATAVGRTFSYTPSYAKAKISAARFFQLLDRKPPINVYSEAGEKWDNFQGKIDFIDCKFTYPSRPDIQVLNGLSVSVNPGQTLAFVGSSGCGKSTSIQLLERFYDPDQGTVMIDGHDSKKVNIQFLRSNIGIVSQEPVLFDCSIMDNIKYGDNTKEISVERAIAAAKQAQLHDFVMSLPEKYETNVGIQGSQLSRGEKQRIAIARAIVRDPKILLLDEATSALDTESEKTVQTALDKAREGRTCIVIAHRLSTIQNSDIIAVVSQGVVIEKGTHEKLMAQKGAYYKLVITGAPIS
Assay: TP_TRANSPORTER: inhibition of Taurocholate uptake in membrane vesicle from Bsep-expressing Sf9-cell
Type: functional, cell membranes

Row | Structure (SMILES) | pKi
1 | CC(C)(C)c1ccc(S(=O)(=O)Nc2nc(-c3ncccn3)nc(OCCO)c2Cc2ccccc2O)cc1 [BOSENTAN M2] | 5.07
2 | COc1ccccc1Oc1c(NS(=O)(=O)c2ccc(C(C)(C)C)cc2)nc(-c2ncccn2)nc1OCCO [BOSENTAN] | 4.92
